Reference: ChEMBL document CHEMBL1201862, “PubChem BioAssay data set” (2004)
Values joined by “and” are separate entries in the source; they are usually repeats but may differ in a detail not shown here. Equal entries are not always repeated.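 Tested at 5 concentrations; 48 h exposure; 96-well plates; endpoints linearly interpolated, else capped at highest concentration. GI50 is the concentration that inhibits growth by half.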 Active and inactive are the calls of the source. Rule as the data show it: active = GI50 up to about 1.1 µM and inactive = higher.

Experiments:
Assay in all cases: growth of human tumour cells (NCI), 48 h
HCT-116 = system: HCT-116
EKVX = system: EKVX
ACHN = system: ACHN
UO-31 = system: UO-31
HT-29 = system: HT-29
A549 = system: A549
SK-MEL-5 = system: SK-MEL-5
SR = system: SR
NCI/ADR-RES = system: NCI/ADR-RES
IGROV-1 = system: IGROV-1
KM12 = system: KM12
Malme-3M = system: Malme-3M
OVCAR-8 = system: OVCAR-8
MDA-MB-231 = system: MDA-MB-231
OVCAR-4 = system: OVCAR-4
SK-OV-3 = system: SK-OV-3
T47D = system: T47D
HL-60 = system: HL-60
SNB-19 = system: SNB-19
SNB-75 = system: SNB-75
NCI-H522 = system: NCI-H522
NCI-H23 = system: NCI-H23
NCI-H460 = system: NCI-H460
RPMI-8226 = system: RPMI-8226
SF-539 = system: SF-539
U-251 = system: U-251
OVCAR-3 = system: OVCAR-3
TK-10 = system: TK-10
SK-MEL-28 = system: SK-MEL-28
UACC-257 = system: UACC-257
M14 = system: M14
CAKI-1 = system: CAKI-1
MDA-MB-435 = system: MDA-MB-435
DU-145 = system: DU-145
SF-295 = system: SF-295
NCI-H226 = system: NCI-H226
RXF 393 = system: RXF 393
SK-MEL-2 = system: SK-MEL-2
SW-620 = system: SW-620
HCT-15 = system: HCT-15
A498 = system: A498
LOX IMVI = system: LOX IMVI
COLO 205 = system: COLO 205
MCF7 = system: MCF7
K562 = system: K562
786-0 = system: 786-0
Hs-578T = system: Hs-578T
SN12C = system: SN12C
PC-3 = system: PC-3
CCRF-CEM = system: CCRF-CEM
MOLT-4 = system: MOLT-4
BT-549 = system: BT-549
HOP-62 = system: HOP-62
OVCAR-5 = system: OVCAR-5
SF-268 = system: SF-268
HCC 2998 = system: HCC 2998
UACC-62 = system: UACC-62
HOP-92 = system: HOP-92
MDA-N = system: MDA-N

Measured: GI50

O=C(Nc1nnc(-c2ccc(Cl)cc2)o1)C(SC(=S)N1CCOCC1)c1ccccc1 (stereo not given)
6.03 µM: HCT-15
inactive: HCT-116 10.2 µM | EKVX 14.6 µM | ACHN 12.4 µM | UO-31 4.97 µM | HT-29 18.8 µM | A549 13.8 µM | SK-MEL-5 12.4 µM | SR 8.09 µM | NCI/ADR-RES 5.58 µM | IGROV-1 19.6 µM | KM12 13.7 µM | Malme-3M 35 µM | OVCAR-8 19.7 µM | MDA-MB-231 30.3 µM | OVCAR-4 20.2 µM | SK-OV-3 28.1 µM | T47D 21.7 µM | HL-60 5.69 µM | SNB-19 27 µM | SNB-75 26.4 µM | NCI-H522 16.3 µM | NCI-H23 20.9 µM | NCI-H460 6.44 µM | RPMI-8226 9.48 µM | SF-539 16.7 µM | U-251 12.5 µM | OVCAR-3 9.38 µM | TK-10 44.3 µM | SK-MEL-28 23.2 µM | UACC-257 33 µM | M14 16.1 µM | CAKI-1 20.3 µM | MDA-MB-435 17.6 µM | DU-145 23.7 µM | SF-295 13.1 µM | NCI-H226 21.9 µM | RXF 393 26.9 µM | SK-MEL-2 14.7 µM | SW-620 26 µM | A498 20.4 µM | LOX IMVI 7.94 µM | COLO 205 13.7 µM | MCF7 22.3 µM | K562 11.6 µM | 786-0 9.35 µM | Hs-578T 46.2 µM | SN12C 8.22 µM | PC-3 13.6 µM | CCRF-CEM 10 µM | MOLT-4 4.38 µM | BT-549 16.8 µM | HOP-62 16.6 µM | OVCAR-5 34.8 µM

COc1ccc(N2C(=O)CC(Cl)C2=O)cc1 (stereo not given)
inactive: HCT-116 18.2 µM | SF-268 > 100 µM | EKVX > 100 µM | ACHN 17.9 µM | UO-31 18.7 µM | HT-29 17.8 µM | A549 > 100 µM | SK-MEL-5 > 100 µM | NCI/ADR-RES 32.4 µM | IGROV-1 > 100 µM | Malme-3M 17.5 µM | OVCAR-8 16.6 µM | MDA-MB-231 17.4 µM | HCC 2998 20.4 µM | OVCAR-4 19.1 µM | SK-OV-3 > 100 µM | UACC-62 20.2 µM | T47D 18.9 µM | SNB-19 > 100 µM | SNB-75 > 100 µM | NCI-H522 17.5 µM | NCI-H23 23.3 µM | NCI-H460 > 100 µM | RPMI-8226 13.5 µM | SF-539 18.2 µM | U-251 > 100 µM | OVCAR-3 15.2 µM | TK-10 18.8 µM | SK-MEL-28 16.6 µM | UACC-257 16.1 µM | M14 > 100 µM | MDA-MB-435 > 100 µM | DU-145 94.6 µM | NCI-H226 20.5 µM | RXF 393 20 µM | SK-MEL-2 > 100 µM | SW-620 18.7 µM | A498 > 100 µM | LOX IMVI 23.3 µM | COLO 205 16.4 µM | HOP-92 27.5 µM | MCF7 60.1 µM | K562 6.05 µM | 786-0 17.7 µM | Hs-578T > 100 µM | SN12C 17.5 µM | PC-3 52.2 µM | BT-549 > 100 µM | HOP-62 > 100 µM | OVCAR-5 18.2 µM
17.5 µM: HCT-15

C=CCN1C(=O)/C(=C/c2ccc(OC)cc2)N=C1SC1OC(COC(C)=O)C(OC(C)=O)C(OC(C)=O)C1OC(C)=O (stereo not given)
36.4 µM and 43.7 µM: HCT-15
inactive: HCT-116 30.8 µM | EKVX 28.2 µM and 21.4 µM | HT-29 8.45 µM | A549 34.8 µM | SK-MEL-5 19.5 µM and 29 µM | SR 34.5 µM and 25.9 µM | MDA-N 37.8 µM | NCI/ADR-RES 30.8 µM and 48.8 µM | Malme-3M 44.2 µM and 57.5 µM | HCC 2998 39.7 µM and 64.3 µM | SK-OV-3 18.1 µM and 34.7 µM | T47D 23.8 µM | SNB-19 32 µM | SNB-75 19.1 µM and 35.5 µM | NCI-H23 33.5 µM and 36.9 µM | RPMI-8226 32.8 µM and 43.3 µM | UACC-257 29.4 µM and 20.7 µM | M14 39.4 µM | DU-145 23.4 µM and 45.3 µM | NCI-H226 21.6 µM and 32.1 µM | RXF 393 27 µM and 25.3 µM | SW-620 60 µM and 36.9 µM | A498 31.9 µM and 32.4 µM | COLO 205 67.8 µM and 41.3 µM | HOP-92 12.7 µM and 17.3 µM | K562 36.7 µM and 24.5 µM | 786-0 17.2 µM | SN12C 29.6 µM | BT-549 27.2 µM and 19.8 µM
